# Molecular target: T1, Dipeptidyl Peptidase-IV (DPP-IV) (Homo sapiens, UniProt P27487)
# T1 construct: made in house
# Assay: Measurement of DPP-IV Activity-Inhibiting Ability (fluorescent substrate Ac-Gly-Pro-AFC)
# Assay type: biochemical
# Settings: 25° C., 50 mmol HEPES (pH 7.4), DP-IV 7.1 nM, enzyme reaction for 1 hour
# Excerpt: Dipeptidyl Peptidase-IV (DPP-IV), known as serine protease, was obtained by a modification of the known method (Tanaka T. et al, Proc. Natl. Acad. Sci. USA, (1994) 91, 3082-3086), which comprises cloning, purification by use of Baculo-Virus and activation steps. DPP-IV was used to test the pharmaceutical efficacy of candidate inhibitors as follows. The cloned DP-IV was expressed in Baculo-Virus, which was purified by nickel column and then subjected to dialysis. The inhibitors synthesized in Examples were tested to determine the binding activity there of using a fluorescent substrate, Ac-Gly-Pro-AFC. Enzyme reactions were conducted for various concentrations of inhibitors, using 100 µM Ac-Gly-Pro-AFC at 25° C. in a buffer solution containing 50 mmol HEPES (pH 7.4), with the concentration of DP-IV being 7.1 nM. […] As the fluorescent spectrometer, Spectra MAX GeminiXS fluorescent spectrometer from Molecular Device Co. was used and the excitation frequency and emission frequency were set to 400 nm and 505 nm, respectively.
# T1 sequence (P27487 whole entry): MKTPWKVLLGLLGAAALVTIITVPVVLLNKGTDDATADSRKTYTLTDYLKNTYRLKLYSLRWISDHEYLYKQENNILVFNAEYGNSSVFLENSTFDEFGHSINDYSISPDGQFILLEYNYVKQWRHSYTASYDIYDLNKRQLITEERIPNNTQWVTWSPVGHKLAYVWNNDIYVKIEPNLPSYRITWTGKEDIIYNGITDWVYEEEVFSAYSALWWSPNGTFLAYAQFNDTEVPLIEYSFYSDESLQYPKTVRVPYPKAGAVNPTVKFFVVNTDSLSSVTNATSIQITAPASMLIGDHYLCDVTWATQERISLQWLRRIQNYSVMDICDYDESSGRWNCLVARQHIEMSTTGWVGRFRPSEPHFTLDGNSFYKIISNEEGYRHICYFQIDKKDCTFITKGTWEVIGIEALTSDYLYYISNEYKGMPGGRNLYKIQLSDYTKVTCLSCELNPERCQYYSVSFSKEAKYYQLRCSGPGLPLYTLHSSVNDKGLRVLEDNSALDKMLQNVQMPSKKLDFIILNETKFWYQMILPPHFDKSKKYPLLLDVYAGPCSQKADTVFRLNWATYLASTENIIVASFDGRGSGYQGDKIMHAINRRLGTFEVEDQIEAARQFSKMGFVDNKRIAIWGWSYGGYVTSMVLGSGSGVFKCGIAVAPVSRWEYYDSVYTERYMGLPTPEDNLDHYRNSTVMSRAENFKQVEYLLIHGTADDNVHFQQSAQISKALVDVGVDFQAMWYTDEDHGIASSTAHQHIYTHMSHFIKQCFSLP
row,Structure (SMILES),IC50
1,"N[C@@H](CC(=O)N1CCn2c(nnc2C(F)(F)F)C1)CN1CCOC1=O [Ex. 1, 3-[2S-amino-4-oxo-4-(3-trifluoromethyl-5,6-dihydro-8H-[1,2,4]triazolo[4,3-a]pyrazin-7-yl)-butyl]-oxazolidin-2-one]",> 10000 nM
2,"CC1CN(C[C@@H](N)CC(=O)N2CCn3c(nnc3C(F)(F)F)C2)C(=O)O1 (stereo partly drawn) [Ex. 2, 3-[2S-amino-4-oxo-4-(3-trifluoromethyl-5,6-dihydro-8H-[1,2,4]triazolo[4,3-a]pyrazin-7-yl)-butyl]-5-methyl-oxazolidin-2-one]",950 nM
3,"CC1CC(=O)N(C[C@@H](N)CC(=O)N2CCn3c(nnc3C(F)(F)F)C2)C1 (stereo partly drawn) [Ex. 4, 1-[2S-amino-4-oxo-4-(3-trifluoromethyl-5,6-dihydro-8H-[1,2,4]triazolo[4,3-a]pyrazin-7-yl)-butyl]-4-methyl-pyrrolidin-2-one]",127 nM
4,"N[C@@H](CC(=O)N1CCn2c(nnc2C(F)(F)F)C1)CN1CCC(F)C1=O (stereo partly drawn) [Ex. 5, 1-[2S-amino-4-oxo-4-(3-trifluoromethyl-5,6-dihydro-8H-[1,2,4]triazolo[4,3-a]pyrazin-7-yl)-butyl]-3-fluoro-pyrrolidin-2-one]",> 10000 nM
5,"N[C@@H](CC(=O)N1CCn2c(nnc2C(F)(F)F)C1)CN1CCCC1=O [Ex. 6, 1-[2S-amino-4-oxo-4-(3-trifluoromethyl-5,6-dihydro-8H-[1,2,4]triazolo[4,3-a]pyrazin-7-yl)-butyl]-pyrrolidin-2-one]",989 nM
6,"N[C@@H](CC(=O)N1CCn2c(nnc2C(F)(F)F)C1)CN1CCCC(F)C1=O (stereo partly drawn) [Ex. 7, 1-[2S-amino-4-oxo-4-(3-trifluoromethyl-5,6-dihydro-8H-[1,2,4]triazolo[4,3-a]pyrazin-7-yl)-butyl]-3-fluoro-piperidin-2-one]",> 10000 nM
7,"CC1CCN(C[C@@H](N)CC(=O)N2CCn3c(nnc3C(F)(F)F)C2)C1=O (stereo partly drawn) [Ex. 8, 1-[2S-amino-4-oxo-4-(3-trifluoromethyl-5,6-dihydro-8H-[1,2,4]triazolo[4,3-a]pyrazin-7-yl)-butyl]-3-methyl-pyrrolidin-2-one]",4150 nM
8,"CC1=CC(=O)N(C[C@@H](N)CC(=O)N2CCn3c(nnc3C(F)(F)F)C2)C1 [Ex. 9, 1-[2S-amino-4-oxo-4-(3-trifluoromethyl-5,6-dihydro-8H-[1,2,4]triazolo[4,3-a]pyrazin-7-yl)-butyl]-4-methyl-1,5-dihydro-pyrrol-2-one]",201 nM
9,"CC1CCN(C[C@@H](N)CC(=O)N2CCn3c(nnc3C(F)(F)F)C2)C(=O)C1 (stereo partly drawn) [Ex. 10, 1-[2S-amino-4-oxo-4-(3-trifluoromethyl-5,6-dihydro-8H-[1,2,4]triazolo[4,3-a]pyrazin-7-yl)-butyl]-4-methyl-piperidin-2-one]",141 nM
10,"N[C@@H](CC(=O)N1CCn2c(nnc2C(F)(F)F)C1)CN1CC(F)(F)CCC1=O [Ex. 11, 1-[2S-amino-4-oxo-4-(3-trifluoromethyl-5,6-dihydro-8H-[1,2,4]triazolo[4,3-a]pyrazin-7-yl)-butyl]-5,5-difluoro-piperidin-2-one]",75 nM
11,"C[C@@H]1CCC(=O)N(C[C@@H](N)CC(=O)N2CCn3c(nnc3C(F)(F)F)C2)C1 [Ex. 12, 1-[2S-amino-4-oxo-4-(3-trifluoromethyl-5,6-dihydro-8H-[1,2,4]triazolo[4,3-a]pyrazin-7-yl)-butyl]-5R-methyl-piperidin-2-one]",35 nM
12,"N[C@@H](CC(=O)N1CCn2c(nnc2C(F)(F)F)C1)CN1CC(C(F)(F)F)CC1=O (stereo partly drawn) [Ex. 13, 1-[2S-amino-4-oxo-4-(3-trifluoromethyl-5,6-dihydro-8H-[1,2,4]triazolo[4,3-a]pyrazin-7-yl)-butyl]-4-trifluoromethyl-pyrrolidin-2-one]",378 nM
13,"N[C@@H](CC(=O)N1CCn2c(nnc2C(F)(F)F)C1)CN1CCC(C(F)(F)F)CC1=O (stereo partly drawn) [Ex. 14, 1-[2S-amino-4-oxo-4-(3-trifluoromethyl-5,6-dihydro-8H-[1,2,4]triazolo[4,3-a]pyrazin-7-yl)-butyl]-4-trifluoromethyl-piperidin-2-one]",217 nM
14,"N[C@@H](CC(=O)N1CCn2c(nnc2C(F)(F)F)C1)CN1CC(C(F)(F)F)CCC1=O (stereo partly drawn) [Ex. 15, 1-[2S-amino-4-oxo-4-(3-trifluoromethyl-5,6-dihydro-8H-[1,2,4]triazolo[4,3-a]pyrazin-7-yl)-butyl]-5-trifluoromethyl-piperidin-2-one]",2500 nM
15,"CC1CN(C[C@@H](N)CC(=O)N2CCn3c(nnc3C(F)(F)F)C2)C(=O)CO1 (stereo partly drawn) [Ex. 16, 4-[2S-amino-4-oxo-4-(3-trifluoromethyl-5,6-dihydro-8H-[1,2,4]triazolo[4,3-a]pyrazin-7-yl)-butyl]-6-methyl-morpholin-3-one]",66 nM
16,"N[C@@H](CC(=O)N1CCc2ccccc2C1)CN1CCCCC1=O [Ex. 17, 1-[2S-amino-4-(3,4-dihydro-1H-isoquinolin-2-yl)-4-oxo-butyl]-piperidin-2-one]",2020 nM

row,Structure (SMILES),IC50
1,"CC1CC(=O)N(C[C@@H](N)CC(=O)N2CCc3ccccc3C2)C1 (stereo partly drawn) [Ex. 18, 1-[2S-amino-4-(3,4-dihydro-1H-isoquinolin-2-yl)-4-oxo-butyl]-4-methyl-pyrrolidin-2-one]",816 nM
2,"N[C@@H](CC(=O)N1CCc2c(noc2C(F)(F)F)C1)CN1CCCCC1=O [Ex. 19, 1-[2S-amino-4-oxo-4-(3-trifluoromethyl-4,5-dihydro-7H-isooxazolo[3,4-c]pyridin-6-yl)butyl]-piperidin-2-one]",712 nM
3,"N[C@@H](CC(=O)N1CCc2c(C(F)(F)F)n[nH]c2C1)CN1CCCCC1=O [Ex. 20, 1-[2S-amino-4-oxo-4-(3-trifluoromethyl-1,4,5,7-tetrahydro-pyrazolo[3,4-c]pyridin-6-yl)-butyl]-piperidin-2-one]",268 nM
4,C[C@@H]1CCC(=O)N(C[C@@H](N)CC(=O)N2CCc3c(ncnc3C(F)(F)F)C2)C1 [Ex. 21],24 nM
5,"C[C@@H]1CCC(=O)N(C[C@@H](N)CC(=O)N2CCc3c(nc(-c4ccccc4)nc3C(F)(F)F)C2)C1 [Ex. 22, (5R)-1-{(2S)-2-amino-4-oxo-4-[2-phenyl-4-(trifluoromethyl)-5,8-dihydropyrido[3,4-d]pyrimidin-7(6H)-yl]butyl}-5-methylpiperidin-2-one]",49 nM
6,C[C@H]1CN(C[C@@H](N)CC(=O)N2CCc3c(nc(-c4ccccc4)nc3C(F)(F)F)C2)C(=O)CO1 [Ex. 23],130 nM
7,"N[C@@H](CC(=O)N1CCc2c(nc(-c3ccccc3)nc2C(F)(F)F)C1)CN1CC(F)(F)CCC1=O [Ex. 24, 1-{(2S)-2-amino-4-oxo-4-[2-phenyl-4-(trifluoromethyl)-5,8-dihydropyrido[3,4-d]pyrimidin-7(6H)-yl]butyl}-5,5-difluoropiperidin-2-one]",66 nM
8,"N[C@@H](CC(=O)N1CCc2c(nc(C3CC3)nc2C(F)(F)F)C1)CN1CC(F)(F)CCC1=O [Ex. 25, 1-{(2S)-2-amino-4-[2-cyclopropyl-4-(trifluoromethyl)-5,8-dihydropyrido[3,4-d]pyrimidin-7(6H)-yl]-4-oxobutyl}-5,5-difluoropiperidin-2-one]",9 nM
9,"C[C@@H]1CCC(=O)N(C[C@@H](N)CC(=O)N2CCc3c(nc(C4CC4)nc3C(F)(F)F)C2)C1 [Ex. 26, 1-{(2S)-2-amino-4-[2-cyclopropyl-4-(trifluoromethyl)-5,8-dihydropyrido[3,4-d]pyrimidin-7(6H)-yl]-4-oxobutyl}-5-methylpiperidin-2-one]",5 nM
10,"C[C@H]1CN(C[C@@H](N)CC(=O)N2CCc3c(nc(C4CC4)nc3C(F)(F)F)C2)C(=O)CO1 [Ex. 27, (6S)-4-{(2S)-2-amino-4-[2-cyclopropyl-4-(trifluoromethyl)-5,8-dihydropyrido[3,4-d]pyrimidin-7(6H)-yl]-4-oxobutyl}-6-methylmorpholine-3-one]",28 nM
11,"N[C@@H](CC(=O)N1CCc2c(cccc2C(F)(F)F)C1)CN1CC(F)(F)CCC1=O [Ex. 28, 1-{(2S)-2-amino-4-oxo-4-[5-(trifluoromethyl)-3,4-dihydroisoquinolin-2(1H)-yl]butyl}5,5-difluoropiperidin-2-one]",1160 nM
12,"C[C@H]1CN(C[C@@H](N)CC(=O)N2CCc3c(cccc3C(F)(F)F)C2)C(=O)CO1 [Ex. 29, (6S)-4-{(2S)-2-amino-4-oxo-4-[5-(trifluoromethyl)-3,4-dihydroisoquinolin-2(1H)-yl]butyl}-6-methylmorpholine-3-one]",175 nM
13,"N[C@@H](CC(=O)N1CCc2c(nc(-c3ccc(F)cc3)nc2C(F)(F)F)C1)CN1CC(F)(F)CCC1=O [Ex. 30, 1-{(2S)-2-amino-4-[2-(4-fluorophenyl)-4-(trifluoromethyl)-5,8-dihydropyrido[3,4-d]pyrimidin-7(6H)-yl]-4-oxobutyl}-5,5-difluoropiperidin-2-one]",21 nM
14,C[C@H]1CN(C[C@@H](N)CC(=O)N2CCc3c(nc(-c4ccc(F)cc4)nc3C(F)(F)F)C2)C(=O)CO1 [Ex. 31],25 nM
15,"N[C@@H](CC(=O)N1CCc2c(nc(-c3cccc(F)c3)nc2C(F)(F)F)C1)CN1CC(F)(F)CCC1=O [Ex. 32, 1-{(2S)-2-amino-4-[2-(3-fluorophenyl)-4-(trifluoromethyl)-5,8-dihydropyrido[3,4-d]pyrimidin-7(6H)-yl]-4-oxobutyl}-5,5-difluoropiperidin-2-one]",199 nM
16,C[C@H]1CN(C[C@@H](N)CC(=O)N2CCc3c(nc(-c4cccc(F)c4)nc3C(F)(F)F)C2)C(=O)CO1 [Ex. 33],170 nM

# Reference: patent publication US7879848B2, “Dipeptidyl Peptidase-IV inhibiting compounds, method of preparing the same, and pharmaceutical compositions containing the same as an active agent” (LG Life Sciences, Ltd., priority 2005, dated 2011)
